Results reported in patent US11986471B2, “Compounds and methods of use” (Tango Therapeutics, Inc., priority 2018, dated 2024).

Legend:
PRMT5 [1] = target: T1, PRMT5 (Homo sapiens, UniProt O14744); assay: PRMT5 IC50 assay in the presence of SAM as cofactor; format: biochemical
T1 construct: purchased Viva (custom protein)
Summary of the method: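 IC50 against PRMT5 determined with SAM as cofactor, with no cofactor, and with MTA as cofactor. Ki derived as IC50/1.5 for the SAM assay and IC50/13.5 for the MTA assay; SAM Ki to MTA Ki ratio also reported.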

PRMT5 [2] = target: T1, PRMT5; assay: PRMT5 IC50 assay with no cofactor; format: biochemical; details: read-out: No Co-factor IC50
Summary of the method: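 Ki conversion: SAM arm, Ki=IC50/1.5; MTA arm, Ki=IC50/13.5. No-cofactor arm reported as IC50 only. Selectivity expressed as Ki(SAM)/Ki(MTA).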

PRMT5 [3] = target: T1, PRMT5; assay: PRMT5 IC50 assay in the presence of MTA as cofactor; format: biochemical; details: for IC50: PRMT5, MTA as cofactor; for SAM/MTA Ratio: ratio between Ki in the presence of SAM and Ki in the presence of MTA
Summary of the method: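 For the SAM-containing format, dividing IC50 by 1.5 yields Ki; for the MTA-containing format the divisor is 13.5. A third format without cofactor gives IC50 alone.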

HAP1 MTAP-intact = assay: SDMA in-cell western assay, HAP1 MTAP-intact cell line; format: cell-based; details: Homo sapiens
Excerpt: Table 1a also indicates IC50 values in an MTAP-isogenic cell line pair for exemplary compounds in an SDMA in-cell western assay (columns 7-8). HAP1 MTAP-intact is a cell line in which endogenous levels of MTAP are expressed, and HAP1 MTAP-deleted is an MTAP-null cell line. […] Compounds with a ratio in the SDMA in-cell western assay of equal to or greater than 3 fold are considered MTAP-selective.

HAP1 MTAP-deleted = assay: SDMA in-cell western assay, HAP1 MTAP-deleted cell line; format: cell-based; details: for IC50: Homo sapiens, HAP1 MTAP-deleted cell line; for MTAP Intact/Deleted Ratio: IC50 ratio HAP1 MTAP-intact / HAP1 MTAP-deleted
Excerpt: Table 1a also indicates IC50 values in an MTAP-isogenic cell line pair for exemplary compounds in an SDMA in-cell western assay (columns 7-8). HAP1 MTAP-intact is a cell line in which endogenous levels of MTAP are expressed, and HAP1 MTAP-deleted is an MTAP-null cell line.

T1 sequence (O14744 whole entry): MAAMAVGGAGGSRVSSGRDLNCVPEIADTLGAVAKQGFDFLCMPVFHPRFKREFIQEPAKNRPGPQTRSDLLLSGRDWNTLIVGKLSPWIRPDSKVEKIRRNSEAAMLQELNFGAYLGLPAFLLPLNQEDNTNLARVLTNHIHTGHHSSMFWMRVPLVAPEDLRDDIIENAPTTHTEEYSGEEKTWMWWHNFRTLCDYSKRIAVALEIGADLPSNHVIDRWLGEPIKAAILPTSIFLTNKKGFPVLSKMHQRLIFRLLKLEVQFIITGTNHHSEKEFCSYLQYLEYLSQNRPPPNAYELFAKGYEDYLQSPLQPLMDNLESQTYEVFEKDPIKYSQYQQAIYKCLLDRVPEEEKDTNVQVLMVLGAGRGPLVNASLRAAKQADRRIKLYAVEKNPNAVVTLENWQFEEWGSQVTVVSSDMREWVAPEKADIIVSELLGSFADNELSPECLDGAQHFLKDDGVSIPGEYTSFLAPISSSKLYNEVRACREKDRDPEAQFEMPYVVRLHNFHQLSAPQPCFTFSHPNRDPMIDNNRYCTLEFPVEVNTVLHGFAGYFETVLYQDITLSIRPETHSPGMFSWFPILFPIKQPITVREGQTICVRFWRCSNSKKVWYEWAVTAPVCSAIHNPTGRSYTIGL
T1 sequence (Q9BQA1 whole entry partner): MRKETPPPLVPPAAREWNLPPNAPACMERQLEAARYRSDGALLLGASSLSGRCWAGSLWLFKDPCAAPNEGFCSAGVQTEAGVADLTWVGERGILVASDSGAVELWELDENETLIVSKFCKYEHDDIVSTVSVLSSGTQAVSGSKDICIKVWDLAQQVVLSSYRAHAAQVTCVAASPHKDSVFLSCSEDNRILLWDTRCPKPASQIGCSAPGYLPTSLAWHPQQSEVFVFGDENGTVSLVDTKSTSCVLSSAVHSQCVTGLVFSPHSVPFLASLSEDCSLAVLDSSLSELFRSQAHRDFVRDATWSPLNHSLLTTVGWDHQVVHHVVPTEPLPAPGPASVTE

Structure (SMILES)	IC50 (PRMT5 [1])	IC50 (PRMT5 [2])	IC50 (PRMT5 [3])	SAM/MTA Ratio (PRMT5 [3])	IC50 (HAP1 MTAP-intact)	IC50 (HAP1 MTAP-deleted)	MTAP Intact/Deleted Ratio (HAP1 MTAP-deleted)
CC(=O)N1CCC(Nc2cc(C(=O)NC[C@H](O)CN3CCc4cc(OCc5cn[nH]c5)ccc4C3)ncn2)CC1 [Compound 201, 6-[(1-acetyl-4-piperidyl)amino]-N-[(2S)-2-hydroxy-3-[6-(1H-pyrazol-4-ylmethoxy)-3,4-dihydro-1H-isoquinolin-2-yl]propyl]pyrimidine-4-carboxamide]	50 to 500 nM	500 to 5000 nM	50 to 500 nM	A (a Ki ratio greater than or equal to 10 fold between the Ki in the presence of SAM and the Ki in the presence of MTA)	1000 to 10000 nM	< 1000 nM	C* (an IC50 ratio of less than 3 fold between the IC50 in the HAP1 MTAP-intact cell line and the HAP1 MTAP-deleted cell line)
CC(=O)N1CCC(Nc2cc(C(=O)NC[C@H](O)CN3CCc4c(ccc(OCc5ccnn5C)c4C)C3)ncn2)CC1 [Compound 203]	500 to 5000 nM	≥ 5000 nM	500 to 5000 nM	A (a Ki ratio greater than or equal to 10 fold between the Ki in the presence of SAM and the Ki in the presence of MTA)	≥ 10000 nM	≥ 10000 nM	C* (an IC50 ratio of less than 3 fold between the IC50 in the HAP1 MTAP-intact cell line and the HAP1 MTAP-deleted cell line)
O=C(NC[C@H](O)CN1CCc2cc(OCc3c[nH]nn3)ccc2C1)c1ccnc(NC2CCC2)c1 [Compound 207, (S)—N-(3-(6-((1H-1,2,3-triazol-4-yl)methoxy)-3,4-dihydroisoquinolin-2(1H)-yl)-2-hydroxypropyl)-2-(cyclobutylamino)isonicotinamide]	500 to 5000 nM	≥ 5000 nM	500 to 5000 nM	A (a Ki ratio greater than or equal to 10 fold between the Ki in the presence of SAM and the Ki in the presence of MTA)	< 1000 nM	< 1000 nM	C* (an IC50 ratio of less than 3 fold between the IC50 in the HAP1 MTAP-intact cell line and the HAP1 MTAP-deleted cell line)
CC(=O)N1CCC(Nc2cc(C(=O)NC[C@H](O)CN3CCc4cc(OCc5ocnc5C)ccc4C3)ncn2)CC1 [Compound 219, (S)-6-((1-acetylpiperidin-4-yl)amino)-N-(2-hydroxy-3-(6-((4-methyloxazol-5-yl)methoxy)-3,4-dihydroisoquinolin-2(1H)-yl)propyl)pyrimidine-4-carboxamide]	50 to 500 nM	≥ 5000 nM	50 to 500 nM	A (a Ki ratio greater than or equal to 10 fold between the Ki in the presence of SAM and the Ki in the presence of MTA)	1000 to 10000 nM	< 1000 nM	B* (an IC50 ratio greater than or equal to 3 fold but lower than 10 fold between the IC50 in the HAP1 MTAP-intact cell line and the HAP1 MTAP-deleted cell line)
CC(=O)N1CCC(Nc2cc(C(=O)NC[C@H](O)CN3CCc4cc(OCc5conc5C)ccc4C3)ncn2)CC1 [Compound 233, (S)-6-((1-acetylpiperidin-4-yl)amino)-N-(2-hydroxy-3-(6-((3-methylisoxazol-4-yl)methoxy)-3,4-dihydroisoquinolin-2(1H)-yl)propyl)pyrimidine-4-carboxamide]	50 to 500 nM	≥ 5000 nM	50 to 500 nM	A (a Ki ratio greater than or equal to 10 fold between the Ki in the presence of SAM and the Ki in the presence of MTA)	≥ 10000 nM	1000 to 10000 nM	C* (an IC50 ratio of less than 3 fold between the IC50 in the HAP1 MTAP-intact cell line and the HAP1 MTAP-deleted cell line)
CC(=O)N1CCC(Nc2cc(C(=O)NC[C@H](O)CN3CCc4c(ccc(OCc5cnco5)c4Cl)C3)ncn2)CC1 [Compound 241, (S)-6-((1-acetylpiperidin-4-yl)amino)-N-(3-(5-chloro-6-(oxazol-5-ylmethoxy)-3,4-dihydroisoquinolin-2(1H)-yl)-2-hydroxypropyl)pyrimidine-4-carboxamide]	50 to 500 nM	500 to 5000 nM	50 to 500 nM	A (a Ki ratio greater than or equal to 10 fold between the Ki in the presence of SAM and the Ki in the presence of MTA)	≥ 10000 nM	1000 to 10000 nM	C* (an IC50 ratio of less than 3 fold between the IC50 in the HAP1 MTAP-intact cell line and the HAP1 MTAP-deleted cell line)
CC(=O)N1CCC(Nc2cc(C(=O)NC[C@H](O)CN3CCc4c(ccc(OCc5ccnn5C)c4Cl)C3)ncn2)CC1 [Compound 242, (S)-6-((1-acetylpiperidin-4-yl)amino)-N-(3-(5-chloro-6-((1-methyl-1H-pyrazol-5-yl)methoxy)-3,4-dihydroisoquinolin-2(1H)-yl)-2-hydroxypropyl)pyrimidine-4-carboxamide]	500 to 5000 nM	≥ 5000 nM	500 to 5000 nM	–	≥ 10000 nM	≥ 10000 nM	C* (an IC50 ratio of less than 3 fold between the IC50 in the HAP1 MTAP-intact cell line and the HAP1 MTAP-deleted cell line)
CC(=O)N1CCC(Nc2cc(C(=O)NC[C@@H](O)CN3CCc4cc(OCc5ocnc5C)ccc4C3)ncn2)CC1 [Compound 249, (R)-6-((1-acetylpiperidin-4-yl)amino)-N-(2-hydroxy-3-(6-((4-methyloxazol-5-yl)methoxy)-3N-dihydroisoquinolin-2(1H)-yl)propyl)pyrimidine-4-carboxamide]	500 to 5000 nM	≥ 5000 nM	500 to 5000 nM	A (a Ki ratio greater than or equal to 10 fold between the Ki in the presence of SAM and the Ki in the presence of MTA)	≥ 10000 nM	≥ 10000 nM	C* (an IC50 ratio of less than 3 fold between the IC50 in the HAP1 MTAP-intact cell line and the HAP1 MTAP-deleted cell line)
CC(=O)N1CCC(Nc2cc(C(=O)NC[C@H](O)CN3CCc4cc(OCc5cnnn5C)ccc4C3)ncn2)CC1 [Compound 250, (S)-6-((1-acetylpiperidin-4-yl)amino)-N-(2-hydroxy-3-(6-((1-methyl-1H-1,2,3-triazol-5-yl)methoxy)-3,4-dihydroisoquinolin-2(1H)-yl)propyl)pyrimidine-4-carboxamide]	500 to 5000 nM	≥ 5000 nM	500 to 5000 nM	A (a Ki ratio greater than or equal to 10 fold between the Ki in the presence of SAM and the Ki in the presence of MTA)	≥ 10000 nM	≥ 10000 nM	C* (an IC50 ratio of less than 3 fold between the IC50 in the HAP1 MTAP-intact cell line and the HAP1 MTAP-deleted cell line)
CC(=O)N1CCC(Nc2cc(C(=O)NC[C@H](O)CN3CCc4c(ccc(OCc5conc5C)c4Cl)C3)ncn2)CC1 [Compound 251, (S)-6-((1-acetylpiperidin-4-yl)amino)-N-(3-(5-chloro-6-((3-methylisoxazol-4-yl)methoxy)-3N-dihydroisoquinolin-2(1H)-yl)-2-hydroxypropyl)pyrimidine-4-carboxamide]	500 to 5000 nM	≥ 5000 nM	500 to 5000 nM	–	≥ 10000 nM	≥ 10000 nM	C* (an IC50 ratio of less than 3 fold between the IC50 in the HAP1 MTAP-intact cell line and the HAP1 MTAP-deleted cell line)
Cc1ncoc1COc1ccc2c(c1Cl)CCN(C[C@@H](O)CNC(=O)c1ccnc(NC3CCC3)c1)C2 [Compound 252, (S)—N-(3-(5-chloro-6-((4-methyloxazol-5-yl)methoxy)-3,4-dihydroisoquinolin-2(1H)-yl)-2-hydroxypropyl)-2-(cyclobutylamino)isonicotinamide]	50 to 500 nM	≥ 5000 nM	50 to 500 nM	A (a Ki ratio greater than or equal to 10 fold between the Ki in the presence of SAM and the Ki in the presence of MTA)	≥ 10000 nM	1000 to 10000 nM	C* (an IC50 ratio of less than 3 fold between the IC50 in the HAP1 MTAP-intact cell line and the HAP1 MTAP-deleted cell line)
CC(=O)N1CCC(Nc2cc(C(=O)NC[C@H](O)CN3CCc4c(ccc(OCc5cn[nH]c5)c4C)C3)ncn2)CC1 [Compound 253, 6-[(1-acetyl-4-piperidyl)amino]-N-[(2S)-2-hydroxy-3-[5-methyl-6-(1H-pyrazol-4-ylmethoxy)-3,4-dihydro-1H-isoquinolin-2-yl]propyl]pyrimidine-4-carboxamide]	500 to 5000 nM	500 to 5000 nM	50 to 500 nM	A (a Ki ratio greater than or equal to 10 fold between the Ki in the presence of SAM and the Ki in the presence of MTA)	1000 to 10000 nM	1000 to 10000 nM	C* (an IC50 ratio of less than 3 fold between the IC50 in the HAP1 MTAP-intact cell line and the HAP1 MTAP-deleted cell line)
